# Patent US8906904B2, “Alkoxy pyrazoles as soluble guanylate cyclase activators” (Boehringer Ingelheim International GmbH, priority 2012, dated 2014)
# Tests used:
# [1] = human liver microsome (HLM) metabolic stability assay; assay type: in vitro ADME; conditions: human liver microsomes; % hepatic blood flow calculated from t1/2
# Method in brief: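 Compounds at 1 uM incubated with human liver microsomes plus NADPH at 37° C., sampled at 0, 5, 15, 30 and 60 min into cold acetonitrile and quantified by LC/MS/MS. t½ from the slope of ln % remaining vs time; CLint, CLh and % Qh derived from it (n=1).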
# [2] = Assessment of solubility (McIlvaine buffers, 24 h shake, UPLC-UV); assay type: physicochemical; conditions: kinetic from dmso stock
# Method in brief: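 Compounds from 10 mM DMSO stocks were shaken for 24 h at room temperature in McIlvaine buffers at pH 2.2, 4.5 and 6.8 (2.5% v/v DMSO final), then filtered. Filtrates were quantified by UPLC-UV at 254 nm against a 50:50 acetonitrile/water reference assumed fully dissolved, as a single determination.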
Compound,HLM (% Qh) [1] [% Qh],"solubility at 24 h ([2]; pH 2.2, aqueous buffer) [µg/mL]","solubility at 24 h ([2]; pH 4.5, aqueous buffer) [µg/mL]","solubility at 24 h ([2]; pH 6.8, aqueous buffer) [µg/mL]"
CCOc1c(C(=O)O)cnn1-c1cccc(-c2cccc(Cl)c2OCc2ccc3c(c2)CCN(C2COC2)C3)n1 [Compound 51],<24,110,83,93
COc1c(C(=O)O)cnn1-c1cccc(-c2cccc(C(F)(F)F)c2OCc2ccc3c(c2C)CCN(C2CCOCC2)C3)n1 [Compound 84],<24,110,86,89
CCOc1c(C(=O)O)cnn1-c1cccc(-c2cccc(C)c2OCc2ccc3c(c2)CCN(C2CC(C)OC(C)C2)C3)n1 (stereo not shown) [Compound 65],<24,110,84,74
"Cc1cccc(-c2cccc(-n3ncc(C(=O)O)c3OC(C)C)n2)c1OCc1ccc2c(c1)CCN(C1CCOCC1)C2 [Compound 1, 5-isopropoxy-1-(6-{3-methyl-2-[2-(tetrahydro-pyran-4-yl)-1,2,3,4-tetrahydro-isoquinolin-6-ylmethoxy]-phenyl}-pyridin-2-yl)-1H-pyrazole-4-carboxylic acid]",<24,95,80,87
COc1c(C(=O)O)cnn1-c1cccc(-c2cccc(C)c2OCc2ccc3c(c2)CCN(C2CCC(F)(F)CC2)C3)n1 [Compound 5],<24,98,76,72
CCOc1c(C(=O)O)cnn1-c1cccc(-c2cccc(C)c2OCc2ccc3c(c2)CCN(C2CCOC(C)(C)C2)C3)n1 (stereo not shown) [Compound 66],<24,63,54,55
CCOc1c(C(=O)O)cnn1-c1cccc(-c2cccc(C)c2OCc2ccc3c(c2)CCN(CC2CCOCC2)C3)n1 [Compound 69],<24,91,77,80
Cc1cccc(-c2cccc(-n3ncc(C(=O)O)c3OC(C)C)n2)c1OCc1ccc2c(c1C)CCN(C(C)C)C2 [Compound 43],26,95,79,82
COc1c(C(=O)O)cnn1-c1cccc(-c2cc(F)cc(F)c2OCc2ccc3c(c2)CCN(C2CCOCC2)C3)n1 [Compound 53],<24,84,65,70
CCOc1c(C(=O)O)cnn1-c1cccc(-c2cccc(Cl)c2OCc2ccc3c(c2)CCN(CCOC)C3)n1 [Compound 58],<24,111,85,89
COc1c(C(=O)O)cnn1-c1cccc(-c2cccc(C(F)(F)F)c2OCc2ccc3c(c2C)CCN(C2COC2)C3)n1 [Compound 88],<24,90,63,75
CCOc1c(C(=O)O)cnn1-c1cccc(-c2cccc(C)c2OCc2ccc3c(c2)CCN(C2CCOCC2C)C3)n1 (stereo not shown) [Compound 64],<24,100,66,66
COc1c(C(=O)O)cnn1-c1cccc(-c2cc(F)cc(F)c2OCc2ccc3c(c2)CCN(C2COC2)C3)n1 [Compound 52],<24,83,58,73
CCOc1c(C(=O)O)cnn1-c1cccc(-c2cccc(C)c2OCc2ccc3c(c2)CCN(C(C)C)C3)n1 [Compound 32],<24,91,73,78
COc1c(C(=O)O)cnn1-c1cccc(-c2cccc(C)c2OCc2ccc3c(c2)CCN(C2CC(C)OC(C)C2)C3)n1 (stereo not shown) [Compound 62],<24,110,88,91
"CCOc1c(C(=O)O)cnn1-c1cccc(-c2cccc(C)c2OCc2ccc3c(c2)CCN(C(C)CF)C3)n1 (stereo not shown) [Compound 49, 5-ethoxy-1-(6-{2-[2-(2-fluoro-1-methyl-ethyl)-1,2,3,4-tetrahydro-isoquinolin-6-ylmethoxy]-3-methyl-phenyl}-pyridin-2-yl)-1H-pyrazole-4-carboxylic acid]",48,92,69,58
Cc1cccc(-c2cccc(-n3ncc(C(=O)O)c3OC(C)C)n2)c1OCc1ccc2c(c1)CCN(CC1(C)COC1)C2 [Compound 40],<24,99,81,85

Compound,HLM (% Qh) [1] [% Qh],"solubility at 24 h ([2]; pH 2.2, aqueous buffer) [µg/mL]","solubility at 24 h ([2]; pH 4.5, aqueous buffer) [µg/mL]","solubility at 24 h ([2]; pH 6.8, aqueous buffer) [µg/mL]"
CCOc1c(C(=O)O)cnn1-c1cccc(-c2cccc(C)c2OCc2ccc3c(c2)CCN(CC2CCOC2)C3)n1 (stereo not shown) [Compound 68],<24,85,71,74
COc1c(C(=O)O)cnn1-c1cccc(-c2cccc(C)c2OCc2ccc3c(c2)CCN(C2C4CCOC4C2(C)C)C3)n1 (stereo not shown) [Compound 75],31,120,93,90
COc1c(C(=O)O)cnn1-c1cccc(-c2cccc(C)c2OCc2ccc3c(c2)CCN([C@H]2CC[C@@H](OC)CC2)C3)n1 [Compound 91],<24,100,81,81
CCOc1c(C(=O)O)cnn1-c1cccc(-c2cccc(Cl)c2OCc2ccc3c(c2)CCN(C2CCC(F)(F)CC2)C3)n1 [Compound 57],<24,95,47,51
CCOc1c(C(=O)O)cnn1-c1cccc(-c2cccc(C)c2OCc2ccc3c(c2)CCN(C(C)CS(C)(=O)=O)C3)n1 (stereo not shown) [Compound 70],<24,86,57,64
COc1c(C(=O)O)cnn1-c1cccc(-c2cccc(C)c2OCc2ccc3c(c2)CCN(C2CC4CCC(C2)O4)C3)n1 (stereo not shown) [Compound 87],<24,110,87,90
CCOc1c(C(=O)O)cnn1-c1cccc(-c2cccc(Cl)c2OCc2ccc3c(c2)CCN(C2CCOCC2)C3)n1 [Compound 54],<24,100,78,75
CCOc1c(C(=O)O)cnn1-c1cccc(-c2cccc(C)c2OCc2ccc3c(c2)CCN(CC2(C)COC2)C3)n1 [Compound 34],<24,82,65,68
CCOc1c(C(=O)O)cnn1-c1cccc(-c2cccc(C)c2OCc2ccc3c(c2)CCN(C2CCOC(C)C2)C3)n1 (stereo not shown) [Compound 78],<24,100,86,89
CCOc1c(C(=O)O)cnn1-c1cccc(-c2cccc(C)c2OCc2ccc3c(c2)CCN(C2COC2)C3)n1 [Compound 6],<24,90,64,81
CCOc1c(C(=O)O)cnn1-c1cccc(-c2cccc(C)c2OCc2ccc3c(c2)CCN(C2CCCOC2)C3)n1 (stereo not shown) [Compound 36],<24,91,72,74
CCOc1c(C(=O)O)cnn1-c1cccc(-c2cccc(C)c2OCc2ccc3c(c2)CCN(CC2CC(F)(F)C2)C3)n1 [Compound 96],30,93,67,75
Cc1cccc(-c2cccc(-n3ncc(C(=O)O)c3OC(C)C)n2)c1OCc1ccc2c(c1)CCN(C1CCCOC1)C2 (stereo not shown) [Compound 42],<24,93,75,78
COc1c(C(=O)O)cnn1-c1cccc(-c2cccc(C)c2OCc2ccc3c(c2)CCN([C@H]2CC[C@H](OC)CC2)C3)n1 [Compound 90],<24,100,81,81
"COc1c(C(=O)O)cnn1-c1cccc(-c2cccc(C)c2OCc2ccc3c(c2)CCN(CC(C)(C)O)C3)n1 [Compound 33, 1-(6-{2-[2-(2-hydroxy-2-methyl-propyl)-1,2,3,4-tetrahydro-isoquinolin-6-ylmethoxy]-3-methyl-phenyl}-pyridin-2-yl)-5-methoxy-1H-pyrazole-4-carboxylic acid]",<24,93,73,75
"Cc1cccc(-c2cccc(-n3ncc(C(=O)O)c3OC(C)C)n2)c1OCc1ccc2c(c1)CCN(CC1CC(F)(F)C1)C2 [Compound 4, 1-(6-{2-[2-(3,3-difluoro-cyclobutylmethyl)-1,2,3,4-tetrahydro-isoquinolin-6-ylmethoxy]-3-methyl-phenyl}-pyridin-2-yl)-5-isopropoxy-1H-pyrazole-4-carboxylic acid]",<24,100,81,83
COc1c(C(=O)O)cnn1-c1cccc(-c2cccc(C)c2OCc2ccc3c(c2)CCN(CC2COCCO2)C3)n1 (stereo not shown) [Compound 92],<24,110,93,96
